In patent US8765748B2, “Indazolyl, benzimidazolyl, benzotriazolyl substituted indolinone derivatives as kinase inhibitors useful in the treatment of cancer” (University Health Network, priority 2007, dated 2014):
Where two headings read alike, the source gives them in different places.

Assays:
[1] = tested on: MDA-MB-468 basal breast cancer cell line; experiment: Cell growth inhibition, Sulforhodamine B assay (SRB); assay type: cell-based; conditions: Homo sapiens, MDA-MB-468, 120 h; 5 days culture, SRB; read-out: Cell Line GI50 Range, MDA-MB-468
Procedure, shortened: (§1)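 Cells seeded 24 h before compound addition, then exposed to 10 nM–50 μM final compound in DMEM + 10% FBS for 5 days. Growth measured by TCA fixation, SRB staining and absorbance at 570 nm; % inhibition relative to DMSO-only cells, with GI50 fitted for cytotoxic compounds.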

A549 lung cancer cells = experiment: as above; assay type: cell-based; conditions: Homo sapiens, A549, 120 h, 5 days culture, read-out: Cell Line GI50 Range, A-549
Procedure, shortened: as §1

[2] = tested on: HCC1954 basal breast cancer cell line; experiment: as above; assay type: cell-based; conditions: Homo sapiens
Procedure, shortened: as §1

[3] = tested on: human mammary epithelial primary cells (HMEC); experiment: as above; assay type: cell-based; conditions: 120 h, 5 days culture, read-out: Cell Line GI50 Range, HMEC
Procedure, shortened: as §1

SW620 colon cancer cells = experiment: as above; assay type: cell-based; conditions: Homo sapiens, SW-620, 120 h, 5 days culture, read-out: Cell Line GI50 Range, SW-620
Procedure, shortened: as §1

[4] = tested on: MCF-7 luminal breast cancer cell line; experiment: as above; assay type: cell-based; conditions: Homo sapiens, MCF7, 120 h; 5 days culture, SRB; read-out: Cell Line GI50 Range, MCF-7
Procedure, shortened: as §1

AMPKa = experiment: Kinase Selectivity Assay (CEREP, HTRF); assay type: biochemical, human
Experimental: (§2) kinase, ROCK2, RSK2, Src kinase, Syk, and TRKA. The % Inhibition was determined

Abl = Abl (Homo sapiens, UniProt P00519); experiment: Kinase Selectivity Assay (CEREP, HTRF); assay type: biochemical; parameters: CEREP, France (ran the assays); conditions: read-out: % Inhibition at 10 μM Concentration, Abl
Abl, sequence (P00519 whole entry): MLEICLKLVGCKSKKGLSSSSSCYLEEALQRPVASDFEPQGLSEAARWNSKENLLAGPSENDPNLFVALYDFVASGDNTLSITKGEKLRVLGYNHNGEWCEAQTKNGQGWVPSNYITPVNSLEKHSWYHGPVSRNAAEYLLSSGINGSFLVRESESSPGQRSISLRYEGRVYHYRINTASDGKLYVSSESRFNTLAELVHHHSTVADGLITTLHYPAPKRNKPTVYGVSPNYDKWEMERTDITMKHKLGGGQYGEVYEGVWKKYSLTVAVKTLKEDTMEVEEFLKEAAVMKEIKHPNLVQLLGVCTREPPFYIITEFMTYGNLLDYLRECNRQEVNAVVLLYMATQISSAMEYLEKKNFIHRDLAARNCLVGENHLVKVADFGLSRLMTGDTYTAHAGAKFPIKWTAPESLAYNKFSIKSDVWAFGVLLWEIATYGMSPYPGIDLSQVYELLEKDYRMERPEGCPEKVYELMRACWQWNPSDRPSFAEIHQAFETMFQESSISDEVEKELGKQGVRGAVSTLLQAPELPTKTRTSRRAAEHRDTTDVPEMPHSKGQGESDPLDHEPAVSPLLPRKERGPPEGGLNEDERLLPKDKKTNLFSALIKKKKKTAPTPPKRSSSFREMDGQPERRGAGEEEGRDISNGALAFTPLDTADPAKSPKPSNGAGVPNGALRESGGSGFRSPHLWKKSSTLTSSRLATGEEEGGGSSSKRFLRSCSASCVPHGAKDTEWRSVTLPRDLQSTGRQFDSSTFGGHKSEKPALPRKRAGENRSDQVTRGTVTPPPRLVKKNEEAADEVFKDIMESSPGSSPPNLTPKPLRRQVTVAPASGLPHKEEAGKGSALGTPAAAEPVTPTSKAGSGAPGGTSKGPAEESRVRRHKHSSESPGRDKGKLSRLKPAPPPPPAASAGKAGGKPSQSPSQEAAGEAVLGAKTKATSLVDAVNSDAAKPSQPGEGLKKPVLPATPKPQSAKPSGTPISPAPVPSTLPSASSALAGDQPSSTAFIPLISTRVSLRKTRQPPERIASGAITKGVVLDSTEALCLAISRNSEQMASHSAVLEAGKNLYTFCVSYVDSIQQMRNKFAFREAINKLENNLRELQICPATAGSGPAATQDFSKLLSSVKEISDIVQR
Experimental: as §2

TRKA [5] = biological target: T1, TRKA (Homo sapiens, UniProt P04629); experiment: Kinase Selectivity Assay (CEREP, HTRF); assay type: biochemical; parameters: purchased CEREP, France (contract assay service); conditions: read-out: % Inhibition at 10 μM Concentration, TRKA
T1 sequence (P04629 33-796): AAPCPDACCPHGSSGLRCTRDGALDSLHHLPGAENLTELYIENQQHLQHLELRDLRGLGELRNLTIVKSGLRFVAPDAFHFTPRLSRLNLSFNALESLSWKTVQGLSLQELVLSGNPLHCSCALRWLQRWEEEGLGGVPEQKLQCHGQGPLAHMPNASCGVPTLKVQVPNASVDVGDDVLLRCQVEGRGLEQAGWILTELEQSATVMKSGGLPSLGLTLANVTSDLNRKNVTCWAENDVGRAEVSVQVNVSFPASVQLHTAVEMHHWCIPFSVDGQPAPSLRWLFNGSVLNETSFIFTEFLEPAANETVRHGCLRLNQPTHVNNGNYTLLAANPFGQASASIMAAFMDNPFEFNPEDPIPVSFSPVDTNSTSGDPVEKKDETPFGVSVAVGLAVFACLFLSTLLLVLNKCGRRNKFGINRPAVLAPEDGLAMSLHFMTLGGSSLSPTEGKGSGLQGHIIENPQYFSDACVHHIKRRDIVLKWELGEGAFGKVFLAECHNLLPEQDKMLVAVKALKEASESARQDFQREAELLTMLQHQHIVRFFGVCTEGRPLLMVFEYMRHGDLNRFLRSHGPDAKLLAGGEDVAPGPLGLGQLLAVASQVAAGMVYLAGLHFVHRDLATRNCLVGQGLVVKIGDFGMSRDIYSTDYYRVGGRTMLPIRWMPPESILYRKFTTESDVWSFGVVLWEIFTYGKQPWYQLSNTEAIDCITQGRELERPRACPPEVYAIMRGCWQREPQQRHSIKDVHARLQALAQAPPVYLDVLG
Experimental: as §2

TRKA [6] = biological target: T1, TRKA; experiment: Millipore kinase assay, radiolabelled phosphopeptide filter binding, IC50 estimate; assay type: biochemical; parameters: purchased Millipore (assay service); conditions: estimated from inhibition at three compound concentrations; ATP at the Km
Experimental: (§3) Kinase assays at Millipore were performed using a radiolabelled phosphopeptide filter binding detection system, in duplicate, at each compound concentration. The ATP substrate concentration in the reactions was at the Km for each enzyme.
(§4) To allow for a more direct comparison of compound inhibition, an IC50 value was estimated from the inhibition determined at three compound concentrations. Several assumptions were made to allow this calculation using a 4 parameter non linear curve fit model, including full inhibition set at 100%, no inhibition set to 0%, and a curve fit parameter set at 1. The inflection point was reported as the estimated IC50.

Lyn = Lyn (Homo sapiens, UniProt P07948); experiment: as above; assay type: biochemical; parameters: purchased Millipore (assay service); conditions: estimated from inhibition at three compound concentrations; ATP at the Km
Lyn, sequence (P07948 whole entry): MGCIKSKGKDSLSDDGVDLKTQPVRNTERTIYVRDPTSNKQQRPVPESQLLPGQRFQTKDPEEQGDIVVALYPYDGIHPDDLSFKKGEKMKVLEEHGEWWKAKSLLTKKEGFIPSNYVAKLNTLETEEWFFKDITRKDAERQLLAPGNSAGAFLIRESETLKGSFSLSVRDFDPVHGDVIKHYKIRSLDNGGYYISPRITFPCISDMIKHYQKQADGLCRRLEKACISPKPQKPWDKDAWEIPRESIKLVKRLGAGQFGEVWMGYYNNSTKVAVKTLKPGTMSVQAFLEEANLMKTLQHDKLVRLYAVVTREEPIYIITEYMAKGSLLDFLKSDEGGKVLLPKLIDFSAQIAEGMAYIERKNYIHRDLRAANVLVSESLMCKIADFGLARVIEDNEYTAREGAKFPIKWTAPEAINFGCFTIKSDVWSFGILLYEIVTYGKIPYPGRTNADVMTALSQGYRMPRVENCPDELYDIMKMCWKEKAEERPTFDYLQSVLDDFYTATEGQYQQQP
Experimental: as §3, §4

Ret = Ret (Homo sapiens, UniProt P07949); experiment: as above; assay type: biochemical; parameters: purchased Millipore (assay service); conditions: estimated from inhibition at three compound concentrations; ATP at the Km
Ret, sequence (P07949 29-1114): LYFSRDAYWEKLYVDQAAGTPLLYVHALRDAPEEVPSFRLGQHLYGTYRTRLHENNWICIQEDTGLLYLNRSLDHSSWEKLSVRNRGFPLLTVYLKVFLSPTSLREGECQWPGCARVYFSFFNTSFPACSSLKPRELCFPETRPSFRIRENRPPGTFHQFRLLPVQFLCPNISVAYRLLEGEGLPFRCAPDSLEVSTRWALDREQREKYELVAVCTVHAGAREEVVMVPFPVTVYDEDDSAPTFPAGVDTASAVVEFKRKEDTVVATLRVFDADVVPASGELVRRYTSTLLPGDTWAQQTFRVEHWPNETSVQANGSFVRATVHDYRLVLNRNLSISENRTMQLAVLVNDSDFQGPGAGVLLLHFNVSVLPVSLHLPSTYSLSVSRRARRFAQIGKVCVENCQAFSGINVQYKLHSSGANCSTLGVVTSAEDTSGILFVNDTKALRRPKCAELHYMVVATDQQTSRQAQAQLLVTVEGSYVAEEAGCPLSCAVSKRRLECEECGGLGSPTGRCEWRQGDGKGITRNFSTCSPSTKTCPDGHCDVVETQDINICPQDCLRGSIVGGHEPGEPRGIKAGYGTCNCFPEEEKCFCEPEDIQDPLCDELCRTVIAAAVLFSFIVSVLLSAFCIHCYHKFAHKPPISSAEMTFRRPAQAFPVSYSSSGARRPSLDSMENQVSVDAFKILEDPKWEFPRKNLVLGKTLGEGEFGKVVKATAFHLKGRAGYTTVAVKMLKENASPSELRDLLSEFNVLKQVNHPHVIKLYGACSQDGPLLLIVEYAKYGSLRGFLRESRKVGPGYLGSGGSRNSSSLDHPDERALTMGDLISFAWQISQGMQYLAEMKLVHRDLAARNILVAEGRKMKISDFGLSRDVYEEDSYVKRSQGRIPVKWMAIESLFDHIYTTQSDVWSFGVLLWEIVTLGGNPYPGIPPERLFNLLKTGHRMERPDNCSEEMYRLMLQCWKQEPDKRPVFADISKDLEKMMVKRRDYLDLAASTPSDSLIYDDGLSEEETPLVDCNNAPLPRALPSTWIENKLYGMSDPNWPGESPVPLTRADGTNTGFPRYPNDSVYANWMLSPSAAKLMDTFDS
Experimental: as §3, §4

KDR = biological target: T2, KDR (Homo sapiens, UniProt P35968); experiment: as above; assay type: biochemical; conditions: estimated from inhibition at three compound concentrations; ATP at the Km
T2 construct: purchased Millipore (assay service)
Experimental: as §3, §4

PDGFRβ = biological target: T3, PDGFRβ (Homo sapiens, UniProt P09619); experiment: as above; assay type: biochemical; conditions: estimated from inhibition at three compound concentrations; ATP at the Km
T3 construct: purchased Millipore (assay service)
Experimental: as §3, §4

FGFR1 = experiment: as above; assay type: biochemical; conditions: estimated from inhibition at three compound concentrations; ATP at the Km
Experimental: as §3, §4

FLT-1 = biological target: T4, FLT-1 (Homo sapiens, UniProt P17948); experiment: as above; assay type: biochemical; conditions: estimated from inhibition at three compound concentrations; ATP at the Km
T4 construct: purchased Millipore (assay service)
T4 sequence (P17948 27-1338): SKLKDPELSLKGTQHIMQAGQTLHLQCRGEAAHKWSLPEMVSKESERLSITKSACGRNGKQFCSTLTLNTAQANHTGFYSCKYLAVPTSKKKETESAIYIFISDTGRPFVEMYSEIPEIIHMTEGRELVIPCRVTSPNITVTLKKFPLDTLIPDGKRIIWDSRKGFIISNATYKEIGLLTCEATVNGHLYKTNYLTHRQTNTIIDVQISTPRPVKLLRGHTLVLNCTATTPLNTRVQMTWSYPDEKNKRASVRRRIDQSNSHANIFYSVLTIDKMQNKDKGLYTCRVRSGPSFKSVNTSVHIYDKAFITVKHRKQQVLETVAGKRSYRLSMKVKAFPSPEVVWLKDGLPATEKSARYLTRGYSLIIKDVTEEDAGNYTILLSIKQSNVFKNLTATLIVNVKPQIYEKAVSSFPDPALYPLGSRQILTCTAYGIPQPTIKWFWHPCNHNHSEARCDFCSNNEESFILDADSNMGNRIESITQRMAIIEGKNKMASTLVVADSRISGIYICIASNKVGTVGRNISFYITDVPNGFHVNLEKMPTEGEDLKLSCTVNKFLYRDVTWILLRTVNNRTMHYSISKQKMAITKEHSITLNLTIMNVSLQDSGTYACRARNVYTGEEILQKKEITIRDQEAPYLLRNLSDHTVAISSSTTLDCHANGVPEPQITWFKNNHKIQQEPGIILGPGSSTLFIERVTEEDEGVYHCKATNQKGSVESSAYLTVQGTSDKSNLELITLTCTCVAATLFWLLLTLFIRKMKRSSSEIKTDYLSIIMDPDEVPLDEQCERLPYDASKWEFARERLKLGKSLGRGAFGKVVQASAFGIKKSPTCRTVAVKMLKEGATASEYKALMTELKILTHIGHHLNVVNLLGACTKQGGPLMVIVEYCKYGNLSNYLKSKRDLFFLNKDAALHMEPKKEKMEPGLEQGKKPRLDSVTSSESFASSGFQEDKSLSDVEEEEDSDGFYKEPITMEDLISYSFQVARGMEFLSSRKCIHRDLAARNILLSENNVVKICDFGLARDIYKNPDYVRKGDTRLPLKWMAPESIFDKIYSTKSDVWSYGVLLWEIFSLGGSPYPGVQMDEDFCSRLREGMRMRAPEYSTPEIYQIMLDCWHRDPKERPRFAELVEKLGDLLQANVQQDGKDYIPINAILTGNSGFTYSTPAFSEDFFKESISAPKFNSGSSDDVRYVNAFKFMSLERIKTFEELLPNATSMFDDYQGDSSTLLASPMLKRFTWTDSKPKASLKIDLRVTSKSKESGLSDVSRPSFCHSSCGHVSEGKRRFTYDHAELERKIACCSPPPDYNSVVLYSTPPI
Experimental: as §3, §4

[7] = HCC1954, 120 h, 5 days culture, read-out: Cell Line GI50 Range, HCC-1954
[8] = HCC1954, extended panel (Table 9), read-out: GI50 Range, HCC1954

| Compound | GI50 [1] [µM] | GI50 (A549 lung cancer cells) [µM] | GI50 [2, 7] [µM] | GI50 [2, 8] [µM] | GI50 [3] [µM] | GI50 (SW620 colon cancer cells) [µM] | GI50 [4] [µM] | % Inhibition at 10 μM Concentration, AMPKalpha (AMPKa) [%] | inhibition at 10 µM (Abl) [%] | inhibition at 10 µM (TRKA [5]) [%] | IC50 (TRKA [6]) [µM] | IC50 (Lyn) [µM] | IC50 (Ret) [µM] | IC50 (KDR) [µM] | IC50 (PDGFRβ) [µM] | IC50 (FGFR1) [µM] | IC50 (FLT-1) [µM] |
| --- | --- | --- | --- | --- | --- | --- | --- | --- | --- | --- | --- | --- | --- | --- | --- | --- | --- |
| O=C1Nc2ccccc2C1=Cc1ccc2c(/C=C/c3ccccn3)n[nH]c2c1 (mixture of isomers) [Example A41, (E and Z)-3-((3-((E)-2-(pyridin-2-yl)vinyl)-1H-indazol-6-yl)methylene)indolin-2-one] | < 5 | 5 to 20 | 20 to 50 | < 5 | > 50 | 5 to 20 | < 5 | 81 | 100 | 99 | < 5 | < 5 | < 5 | < 5 | < 5 | < 5 | < 5 |
| COc1ccc2c(c1)C(=Cc1ccc3c(-c4ccc(N5CCN(C)CC5)nc4)n[nH]c3c1)C(=O)N2 (mixture of isomers) [Example A97, (E and Z)-5-methoxy-3-((3-(6-(4-methylpiperazin-1-yl)pyridin-3-yl)-1H-indazol-6-yl)methylene)indolin-2-one] | < 5 | < 5 | < 5 | < 5 | 20 to 50 | < 5 | < 5 | 76 | 99 | 93 | < 5 | 5 to 50 | < 5 | < 5 | 5 to 50 | < 5 | < 5 |
| CN(C)Cc1ccc(/C=C/c2n[nH]c3cc(C=C4C(=O)Nc5ccccc54)ccc23)cc1 (mixture of isomers) [Example A106, (E and Z)-3-[(3-{(E)-2-[4-((dimethylamino)methyl)-phenyl]-ethenyl}-1H-indazol-6-yl)methylidene]-1,3-dihydro-2H-indol-2-one 2,2,2-trifluoroacetate] | < 5 | < 5 | < 5 |  | 5 to 20 | < 5 | < 5 |  |  |  | < 5 | < 5 | < 5 |  | < 5 | < 5 | < 5 |
| CN1CCN(c2ccc(/C=C/c3n[nH]c4cc(C=C5C(=O)Nc6ccccc65)ccc34)cn2)CC1 (mixture of isomers) [Example A108, (E and Z)-3-((3-((E)-2-(6-(4-methylpiperazin-1-yl)pyridin-3-yl)vinyl)-1H-indazol-6-yl)methylene)indolin-2-one] | < 5 | < 5 | < 5 | < 5 | < 5 | < 5 | < 5 |  |  |  |  |  |  |  |  |  |  |
| O=C1Nc2ncc(Br)cc2C1=Cc1ccc2c(/C=C/c3ccncc3)n[nH]c2c1 (mixture of isomers) [Example A109, (E and Z)-5-bromo-3-((3-((E)-2-(pyridin-4-yl)vinyl)-1H-indazol-6-yl)methyl-ene)-1H-pyrrolo[2,3-b]pyridin-2(3H)-one] | < 5 | < 5 | > 50 | > 50 | > 50 | < 5 | < 5 |  |  |  |  |  |  |  |  |  |  |
| O=C1Nc2ccccc2/C1=C\c1ccc2[nH]nnc2c1 [Example A1, (E)-3-((1H-benzo[d][1,2,3]triazol-5-yl)methylene)indolin-2-one] |  |  |  |  |  |  |  | 15 | 34 | -13 |  |  |  |  |  |  |  |
| O=C1Nc2ccccc2/C1=C\c1ccc2cn[nH]c2c1 [Example A5, (E)-3-((1H-indazol-6-yl)methylene)indolin-2-one] |  |  |  |  |  |  |  | 54 | 24 | 60 |  |  |  |  |  |  |  |
| O=C1Nc2ccccc2/C1=C\c1ccc2c(/C=C/c3ccccc3Cl)n[nH]c2c1 [Example A60, (E)-3-((3-((E)-2-chlorostyryl)-1H-indazol-6-yl)methylene)indolin-2-one] |  |  |  |  |  |  |  | 8 | 40 | 75 |  |  |  |  |  |  |  |
